From the supplement of paper PMC9013687
± gives the standard deviation of the averaged measurements.

Tests used:
Danio rerio embryo [1] = system: Danio rerio embryo
Procedure: (§1)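 Zebrafish embryos (UFZ-OBI strain) were exposed from 2 hpf for 48 h (2 dpf) or 96 h (4 dpf) at 28 °C; spontaneous tail coiling was scored at 25 hpf. Morphological features from automated image analysis (FishInspector), heart rate and locomotor response were fitted with drc models. Quantal endpoints were dichotomised at 2.5 SD from controls and fitted with a log-logistic model; heart rate, pigmentation and STC were normalised to the replicate control mean. Betamethasone was tested as betamethasone dipropionate, diflorasone as diflorasone diacetate.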

Danio rerio embryo [2] = conditions: exposure time: 4 dpf
Procedure: as §1

Danio rerio embryo [3] = experiment: EC50 Curvature_Increase
Procedure: as §1

Danio rerio embryo [4] = experiment: EC50 Body length_Decrease
Procedure: as §1

Danio rerio embryo [5] = experiment: EC50 Bladder size_Decrease; conditions: exposure time: 4 dpf
Procedure: as §1

Danio rerio embryo [6] = experiment: EC50 Pericard size_Increase
Procedure: as §1

Danio rerio embryo [7] = experiment: EC50 Yolk sac size_Increase
Procedure: as §1

Danio rerio embryo [8] = experiment: EC50 Eye-jaw distance_Decrease; conditions: exposure time: 4 dpf
Procedure: as §1

Danio rerio embryo [9] = experiment: EC50 Otolith-eye distance_Decrease; conditions: exposure time: 4 dpf
Procedure: as §1

Danio rerio embryo [10] = experiment: EC10 LMR dark; higher = less potent; conditions: exposure time: 4 dpf
Procedure: as §1

Danio rerio embryo [11] = experiment: EC20 LMR dark; higher = less potent; conditions: exposure time: 4 dpf
Procedure: as §1

Danio rerio embryo [12] = experiment: EC20 Any effect; higher = less potent
Procedure: as §1

Danio rerio embryo [13] = experiment: EC10 Any effect; higher = less potent
Procedure: as §1

Danio rerio embryo [14] = experiment: EC20 Eye size_Decrease; higher = less potent
Procedure: as §1

Danio rerio embryo [15] = experiment: EC10 Curvature_Increase; higher = less potent
Procedure: as §1

Danio rerio embryo [16] = experiment: EC20 Curvature_Increase; higher = less potent
Procedure: as §1

Danio rerio embryo [17] = experiment: EC10 Head size_Decrease; higher = less potent; conditions: exposure time: 2 dpf
Procedure: as §1

Danio rerio embryo [18] = experiment: EC20 Body length_Decrease; higher = less potent
Procedure: as §1

Danio rerio embryo [19] = experiment: EC10 Body length_Decrease; higher = less potent
Procedure: as §1

Danio rerio embryo [20] = experiment: EC10 Bladder size_Decrease; higher = less potent; conditions: exposure time: 4 dpf
Procedure: as §1

Danio rerio embryo [21] = experiment: EC20 Bladder size_Decrease; higher = less potent; conditions: exposure time: 4 dpf
Procedure: as §1

Danio rerio embryo [22] = experiment: EC20 Yolk sac size_Increase; higher = less potent
Procedure: as §1

Danio rerio embryo [23] = experiment: EC20 Pericard size_Increase; higher = less potent
Procedure: as §1

Danio rerio embryo [24] = experiment: EC10 Yolk sac size_Increase; higher = less potent
Procedure: as §1

Danio rerio embryo [25] = experiment: EC10 Pericard size_Increase; higher = less potent
Procedure: as §1

Danio rerio embryo [26] = experiment: EC20 Eye-jaw distance_Decrease; higher = less potent; conditions: exposure time: 4 dpf
Procedure: as §1

Danio rerio embryo [27] = experiment: EC10 Eye-jaw distance_Decrease; higher = less potent; conditions: exposure time: 4 dpf
Procedure: as §1

Danio rerio embryo [28] = experiment: EC20 Otolith-eye distance_Decrease; higher = less potent; conditions: exposure time: 4 dpf
Procedure: as §1

Danio rerio embryo [29] = experiment: EC10 Otolith-eye distance_Decrease; higher = less potent; conditions: exposure time: 4 dpf
Procedure: as §1

Danio rerio embryo [30] = experiment: spontaneous tail coiling frequency (coils/min/embryo); higher = more spontaneous movement; conditions: 25 hpf
Procedure: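 Spontaneous tail coilings of zebrafish embryos exposed from 2 hpf were recorded at 24-25 hpf in 1-min videos and detected by a KNIME workflow from grey-value variance. Betamethasone was tested as the dipropionate, diflorasone as the diacetate.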

CCCCC(O)(Cn1cncn1)c1ccc(Cl)cc1Cl (stereo not drawn) [Hexaconazole]
Conditions | EC10 Any effect [µM] | EC10 Body length Decrease [µM] | EC10 Curvature Increase [µM] | EC10 Pericard size Increase [µM] | EC10 Yolk sac size Increase [µM] | EC20 Any effect [µM] | EC20 Body length Decrease [µM] | EC20 Curvature Increase [µM] | EC20 Eye size Decrease [µM] | EC20 Pericard size Increase [µM] | EC20 Yolk sac size Increase [µM] | EC50 Any effect [µM] | EC50 Body length Decrease [µM] | EC50 Curvature Increase [µM] | EC50 Pericard size Increase [µM] | EC50 STC bell shape [µM] | EC50 Yolk sac size Increase [µM] | spontaneous tail coiling frequency
Danio rerio embryo [1], exposure time: 2 dpf | – | – | – | – | – | – | – | – | – | – | – | 19.5 | – | – | – | – | – | –
Danio rerio embryo [1], exposure time: 4 dpf | – | – | – | – | – | – | – | – | – | – | – | 10.8 | – | – | – | – | – | –
Danio rerio embryo [1], exposure time: 25 h | – | – | – | – | – | – | – | – | – | – | – | – | – | – | – | 23.4 | – | –
Danio rerio embryo [3], exposure time: 2 dpf | – | – | – | – | – | – | – | – | – | – | – | – | – | 21.2 | – | – | – | –
Danio rerio embryo [3], exposure time: 4 dpf | – | – | – | – | – | – | – | – | – | – | – | – | – | 17.5 | – | – | – | –
Danio rerio embryo [4], exposure time: 2 dpf | – | – | – | – | – | – | – | – | – | – | – | – | 33.4 | – | – | – | – | –
Danio rerio embryo [4], exposure time: 4 dpf | – | – | – | – | – | – | – | – | – | – | – | – | 16.8 | – | – | – | – | –
Danio rerio embryo [6], exposure time: 2 dpf | – | – | – | – | – | – | – | – | – | – | – | – | – | – | 31.5 | – | – | –
Danio rerio embryo [6], exposure time: 4 dpf | – | – | – | – | – | – | – | – | – | – | – | – | – | – | 20.4 | – | – | –
Danio rerio embryo [7], exposure time: 2 dpf | – | – | – | – | – | – | – | – | – | – | – | – | – | – | – | – | 51.2 | –
Danio rerio embryo [7], exposure time: 4 dpf | – | – | – | – | – | – | – | – | – | – | – | – | – | – | – | – | 9.95 | –
Danio rerio embryo [12], exposure time: 2 dpf | – | – | – | – | – | 15.7 | – | – | – | – | – | – | – | – | – | – | – | –
Danio rerio embryo [12], exposure time: 4 dpf | – | – | – | – | – | 9.17 | – | – | – | – | – | – | – | – | – | – | – | –
Danio rerio embryo [13], exposure time: 2 dpf | 13.8 | – | – | – | – | – | – | – | – | – | – | – | – | – | – | – | – | –
Danio rerio embryo [13], exposure time: 4 dpf | 8.34 | – | – | – | – | – | – | – | – | – | – | – | – | – | – | – | – | –
Danio rerio embryo [14], exposure time: 2 dpf | – | – | – | – | – | – | – | – | 48.8 | – | – | – | – | – | – | – | – | –
Danio rerio embryo [14], exposure time: 4 dpf | – | – | – | – | – | – | – | – | 12.2 | – | – | – | – | – | – | – | – | –
Danio rerio embryo [15], exposure time: 2 dpf | – | – | 17.5 | – | – | – | – | – | – | – | – | – | – | – | – | – | – | –
Danio rerio embryo [15], exposure time: 4 dpf | – | – | 11.8 | – | – | – | – | – | – | – | – | – | – | – | – | – | – | –
Danio rerio embryo [16], exposure time: 2 dpf | – | – | – | – | – | – | – | 18.8 | – | – | – | – | – | – | – | – | – | –
Danio rerio embryo [16], exposure time: 4 dpf | – | – | – | – | – | – | – | 13.7 | – | – | – | – | – | – | – | – | – | –
Danio rerio embryo [18], exposure time: 2 dpf | – | – | – | – | – | – | 23.5 | – | – | – | – | – | – | – | – | – | – | –
Danio rerio embryo [18], exposure time: 4 dpf | – | – | – | – | – | – | 13.7 | – | – | – | – | – | – | – | – | – | – | –
Danio rerio embryo [19], exposure time: 2 dpf | – | 19.2 | – | – | – | – | – | – | – | – | – | – | – | – | – | – | – | –
Danio rerio embryo [19], exposure time: 4 dpf | – | 12.2 | – | – | – | – | – | – | – | – | – | – | – | – | – | – | – | –
Danio rerio embryo [22], exposure time: 2 dpf | – | – | – | – | – | – | – | – | – | – | 47.2 | – | – | – | – | – | – | –
Danio rerio embryo [22], exposure time: 4 dpf | – | – | – | – | – | – | – | – | – | – | 6.81 | – | – | – | – | – | – | –
Danio rerio embryo [23], exposure time: 2 dpf | – | – | – | – | – | – | – | – | – | 17.9 | – | – | – | – | – | – | – | –
Danio rerio embryo [23], exposure time: 4 dpf | – | – | – | – | – | – | – | – | – | 16.9 | – | – | – | – | – | – | – | –
Danio rerio embryo [24], exposure time: 2 dpf | – | – | – | – | 45 | – | – | – | – | – | – | – | – | – | – | – | – | –
Danio rerio embryo [24], exposure time: 4 dpf | – | – | – | – | 5.45 | – | – | – | – | – | – | – | – | – | – | – | – | –
Danio rerio embryo [25], exposure time: 2 dpf | – | – | – | 12.8 | – | – | – | – | – | – | – | – | – | – | – | – | – | –
Danio rerio embryo [25], exposure time: 4 dpf | – | – | – | 15.2 | – | – | – | – | – | – | – | – | – | – | – | – | – | –
Danio rerio embryo [30], 5 µM | – | – | – | – | – | – | – | – | – | – | – | – | – | – | – | – | – | 10.3
Danio rerio embryo [30], 9.9 µM | – | – | – | – | – | – | – | – | – | – | – | – | – | – | – | – | – | 9.83 ± 1.7
Danio rerio embryo [30], 13.3 µM | – | – | – | – | – | – | – | – | – | – | – | – | – | – | – | – | – | 9.46 ± 0.4
Danio rerio embryo [30], 19.9 µM | – | – | – | – | – | – | – | – | – | – | – | – | – | – | – | – | – | 9.25 ± 2.5
Danio rerio embryo [30], 26.5 µM | – | – | – | – | – | – | – | – | – | – | – | – | – | – | – | – | – | 1.62 ± 0.91
Danio rerio embryo [30], 53 µM | – | – | – | – | – | – | – | – | – | – | – | – | – | – | – | – | – | 0
Danio rerio embryo [30], 79.6 µM | – | – | – | – | – | – | – | – | – | – | – | – | – | – | – | – | – | 0

Conditions | EC10 Bladder size Decrease [µM] | EC10 Eye-jaw distance Decrease [µM] | EC10 Head size Decrease [µM] | EC10 LMR dark [µM] | EC10 Otolith-eye distance Decrease [µM] | EC20 Bladder size Decrease [µM] | EC20 Eye-jaw distance Decrease [µM] | EC20 LMR dark [µM] | EC20 Otolith-eye distance Decrease [µM] | EC50 Bladder size Decrease [µM] | EC50 Eye-jaw distance Decrease [µM] | EC50 LMR dark [µM] | EC50 Otolith-eye distance Decrease [µM]
Danio rerio embryo [2] | – | – | – | – | – | – | – | – | – | – | – | 4.83 | –
Danio rerio embryo [5] | – | – | – | – | – | – | – | – | – | 10.3 | – | – | –
Danio rerio embryo [8] | – | – | – | – | – | – | – | – | – | – | 13.1 | – | –
Danio rerio embryo [9] | – | – | – | – | – | – | – | – | – | – | – | – | 19.8
Danio rerio embryo [10] | – | – | – | 3.21 | – | – | – | – | – | – | – | – | –
Danio rerio embryo [11] | – | – | – | – | – | – | – | 3.68 | – | – | – | – | –
Danio rerio embryo [17] | – | – | 33.8 | – | – | – | – | – | – | – | – | – | –
Danio rerio embryo [20] | 6.28 | – | – | – | – | – | – | – | – | – | – | – | –
Danio rerio embryo [21] | – | – | – | – | – | 7.52 | – | – | – | – | – | – | –
Danio rerio embryo [26] | – | – | – | – | – | – | 10.5 | – | – | – | – | – | –
Danio rerio embryo [27] | – | 9.21 | – | – | – | – | – | – | – | – | – | – | –
Danio rerio embryo [28] | – | – | – | – | – | – | – | – | 19.7 | – | – | – | –
Danio rerio embryo [29] | – | – | – | – | 19.6 | – | – | – | – | – | – | – | –
